Values quoted from earlier work, collected in patent US20170281701A1, “Formulation for the Nebulization of Oil Based Substances Suitable for Use with a Vibrating Mesh Nebulizer” (priority 2016, published 2017).

What was measured:
[1] = compared with Δ8-THC
[2] = not given; remark: listed apart in the source
[3] = smoked cannabis cigarette, of total available amount
[4] = oral dose of 20 mg in a chocolate cookie

SMILES	permeability through the skin relative to Δ8-THC [1] [fold]	absorption through the rectal route	other results
C=C(C)[C@@H]1CCC(C)=C[C@H]1c1c(O)cc(CCCCC)cc1O [CBD, cannabidiol]	10	–	–
CCCCCc1cc(OC(=O)CCC(=O)O)c2c(c1)OC(C)(C)[C@@H]1CCC(C)=C[C@@H]21 [Δ^9-THC-hemisuccinate]	–	is absorbed	–
CCCCCc1cc(O)c2c(c1)OC(C)(C)c1ccc(C)cc1-2 [CBN, cannabinol]	10	–	–
CCCCCc1cc(O)c2c(c1)OC(C)(C)[C@@H]1CCC(C)=C[C@@H]21 [dronabinol]	–	–	administered dose entering the systemic circulation ([2]; orally administered, extensive first-pass metabolism): 10-20%
CCCCCc1cc(O)c2c(c1)OC(C)(C)[C@@H]1CCC(C)=C[C@@H]21 [Δ^9-THC, Δ-9-tetrahydrocannabinol]	–	not absorbed	absorption (description) [2, 4]: slow and unreliable; systemic availability [2, 4]: 4-12%; maximum of THC content in a cannabis cigarette absorbed or delivered to the systemic circulation [3]: 25-27%
